Experimental data from ChEMBL document CHEMBL5137018, “Pyranochromones with Anti-Inflammatory Activities in Arthritis from Calophyllum membranaceum” (J Nat Prod, 2022).
Activity calls are given as the source filed them. The rule behind the calls is not given here.

What was measured:
[1] = tested on: RAW264.7; experiment: Antiinflammatory activity in mouse RAW264.7 assessed as inhibition of LPS-induced NO production preincubated for 12 hrs followed by LPS stimulation and measured after 6 hrs by Griess reagent based assay; type: functional, cell-based
[2] = tested on: RAW264.7; experiment: Cytotoxicity against mouse RAW264.7 cells assessed as effect on cell viability measured after 12 hrs by MTT assay; type: functional
[3] = tested on: Mus musculus; experiment: Antiinflammatory activity in carrageenan-induced acute arthritis ICR mouse assessed as downregulation of IL-5 secretion in plasma measured at 10 to 20 mg/kg, po for 10 days followed by carrageenan stimulation and measured after 6 hrs by ELISA; type: functional, organism-based; conditions: dose 10-20 mg/kg, time 10.0 day, DDE = dose-dependent effect
[4] = tested on: Mus musculus; experiment: Antiinflammatory activity in carrageenan-induced acute arthritis ICR mouse assessed as reduction in relative neutrophil to lymphocyte ratio at 10 mg/kg, po for 10 days followed by carrageenan stimulation and measured upto 6 hrs by hematology analyzer; type: functional; conditions: time 10 day
[5] = target: T1, Toll-like receptor 4 (Mus musculus) (UniProt Q9QUK6); experiment: Binding affinity to mouse TLR4 in RAW264.7 cells assessed as thermal stabilization at 1 uM and measured after 12 hrs by CETSA analysis; type: cell-based
T1 sequence (whole entry): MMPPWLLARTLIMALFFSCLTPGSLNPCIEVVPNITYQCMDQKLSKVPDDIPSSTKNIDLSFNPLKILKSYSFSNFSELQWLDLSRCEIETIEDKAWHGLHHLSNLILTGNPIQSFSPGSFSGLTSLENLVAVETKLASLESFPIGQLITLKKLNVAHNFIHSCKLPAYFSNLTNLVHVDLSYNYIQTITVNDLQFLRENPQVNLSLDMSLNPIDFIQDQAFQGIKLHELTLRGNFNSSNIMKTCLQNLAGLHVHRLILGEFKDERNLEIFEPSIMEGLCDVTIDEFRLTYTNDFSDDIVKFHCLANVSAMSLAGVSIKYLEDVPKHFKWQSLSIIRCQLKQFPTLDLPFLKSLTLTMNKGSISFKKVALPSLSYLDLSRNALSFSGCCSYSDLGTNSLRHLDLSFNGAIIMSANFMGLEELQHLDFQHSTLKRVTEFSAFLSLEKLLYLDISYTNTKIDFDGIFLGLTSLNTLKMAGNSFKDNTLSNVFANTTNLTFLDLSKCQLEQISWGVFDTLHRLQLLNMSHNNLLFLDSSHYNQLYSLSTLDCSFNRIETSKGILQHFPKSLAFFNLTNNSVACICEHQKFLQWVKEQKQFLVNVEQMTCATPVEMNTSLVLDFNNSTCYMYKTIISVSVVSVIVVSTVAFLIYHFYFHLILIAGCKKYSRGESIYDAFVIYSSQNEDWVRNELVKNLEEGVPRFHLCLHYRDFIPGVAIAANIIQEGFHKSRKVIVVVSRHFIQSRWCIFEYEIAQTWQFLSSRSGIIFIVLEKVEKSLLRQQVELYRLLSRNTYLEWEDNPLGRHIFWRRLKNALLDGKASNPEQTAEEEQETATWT

[6] = tested on: RAW264.7; experiment: Antiinflammatory activity in LPS induced mouse RAW264.7 cells assessed as downregulation of IL-2 secretion at 0.1 to 5 uM incubated for 12 hrs followed by LPS stimulation and measured after 24 hrs by ELISA; type: functional, cell-based; conditions: dose 0.1-5 µM, time 36.0 hrs, DDE = dose-dependent effect
[7] = tested on: RAW264.7; experiment: Antiinflammatory activity in LPS induced mouse RAW264.7 cells assessed as downregulation of IL-4 secretion at 0.1 to 5 uM incubated for 12 hrs followed by LPS stimulation and measured after 24 hrs by ELISA; type: functional, cell-based; conditions: dose 0.1-5 µM, time 36.0 hrs, DDE = dose-dependent effect
[8] = tested on: Mus musculus; experiment: Antiinflammatory activity in carrageenan-induced acute arthritis ICR mouse assessed as downregulation of IL-2 secretion in plasma measured at 10 to 20 mg/kg, po for 10 days followed by carrageenan stimulation and measured after 6 hrs by ELISA; type: functional, organism-based; conditions: dose 10-20 mg/kg, time 10.0 day, DDE = dose-dependent effect
[9] = tested on: Mus musculus; experiment: Antiinflammatory activity in carrageenan-induced acute arthritis ICR mouse assessed as reduction in relative neutrophil to lymphocyte ratio at 20 mg/kg, po for 10 days followed by carrageenan stimulation and measured upto 6 hrs by hematology analyzer; type: functional; conditions: time 10 day
[10] = tested on: RAW264.7; experiment: Antiinflammatory activity in mouse RAW264.7 cells assessed as increase in IKK alpha phosphorylation at 0.1 to 5 uM preincubated for 12 hrs followed by LPS stimulation and measured after 24 hrs by western blot assay; type: functional, cell-based; conditions: dose 0.1-5 µM, time 36.0 hrs, DDE = dose-dependent effect
[11] = tested on: RAW264.7; experiment: Antiinflammatory activity in LPS induced mouse RAW264.7 cells assessed as downregulation of IL-5 secretion at 0.1 to 5 uM incubated for 12 hrs followed by LPS stimulation and measured after 24 hrs by ELISA; type: functional, cell-based; conditions: dose 0.1-5 µM, time 36.0 hrs, DDE = dose-dependent effect
[12] = tested on: RAW264.7; experiment: Antiinflammatory activity in mouse RAW264.7 cells assessed as suppression of NF-kappa B expression at 0.1 to 5 uM preincubated for 12 hrs followed by LPS stimulation and measured after 24 hrs by western blot assay; type: functional, cell-based; conditions: dose 0.1-5 µM, time 36.0 hrs, DDE = dose-dependent effect
[13] = tested on: Mus musculus; experiment: Antiinflammatory activity in carrageenan-induced acute arthritis ICR mouse assessed as downregulation of IL-4 secretion in plasma measured at 10 to 20 mg/kg, po for 10 days followed by carrageenan stimulation and measured after 6 hrs by ELISA; type: functional, organism-based; conditions: dose 10-20 mg/kg, time 10.0 day, DDE = dose-dependent effect
[14] = tested on: Mus musculus; experiment: Antiinflammatory activity in carrageenan-induced acute arthritis ICR mouse assessed as reduction in paw swelling at 10 to 20 mg/kg, po for 10 days followed by carrageenan stimulation and measured upto 6 hrs by vernier caliper method; type: functional, organism-based; conditions: dose 10-20 mg/kg, time 10.0 day
[15] = tested on: RAW264.7; experiment: Antiinflammatory activity in mouse RAW264.7 cells assessed as increase in IKK beta phosphorylation at 0.1 to 5 uM preincubated for 12 hrs followed by LPS stimulation and measured after 24 hrs by western blot assay; type: functional, cell-based; conditions: dose 0.1-5 µM, time 36.0 hrs, DDE = dose-dependent effect

| Structure (SMILES) | IC50 [1] | CC50 [2] | also measured |
| --- | --- | --- | --- |
| CCCCC(CC(=O)O)c1c2c(c(O)c3c1O[C@H](C)[C@@H](C)C3=O)C=CC(C)(C)O2 (stereo partly drawn) | 7.43 µM | 654 µM | – |
| C[C@@H]1C(=O)c2c(O)c([C@@H](CC(=O)O)c3ccccc3)c3c(c2O[C@@H]1C)C=CC(C)(C)O3 (single isomer, unassigned) | 11.3 µM | 583 µM | – |
| CCCCC[C@H](CC(=O)O)c1c(O)c2c(c3c1OC(C)(C)C=C3)O[C@H](C)[C@H](C)C2=O | 5.17 µM | 636 µM | – |
| CCCC(CC(=O)O)c1c2c(c(O)c3c1O[C@H](C)[C@@H](C)C3=O)C=CC(C)(C)O2 (stereo partly drawn) | 8.44 µM | 663 µM | – |
| C[C@H](C(=O)c1c(O)c2c(c3c1OC(=O)C[C@H]3c1ccccc1)OC(C)(C)C=C2)[C@@H](C)O | 10.1 µM | 507 µM | – |
| COC(=O)C[C@@H](c1ccccc1)c1c2c(c(O)c3c1O[C@@H](C)[C@H](C)C3=O)C=CC(C)(C)O2 | 12.5 µM | 594 µM | – |
| CCCC(CC(=O)OC)c1c2c(c(O)c3c1O[C@H](C)[C@@H](C)C3=O)C=CC(C)(C)O2 (stereo partly drawn) | 5.14 µM | 649 µM | – |
| C[C@@H]1Oc2c(c(O)c3c(c2[C@@H](CC(=O)O)c2ccccc2)OC(C)(C)C=C3)C(=O)[C@H]1C | 13.8 µM | 569 µM | – |
| CCCCCC(CC(=O)O)c1c2c(c(O)c3c1O[C@H](C)[C@@H](C)C3=O)C=CC(C)(C)O2 (stereo partly drawn) | 6.88 µM | 668 µM | – |
| CCCCCC(CC(=O)OC)c1c2c(c(O)c3c1O[C@H](C)[C@@H](C)C3=O)C=CC(C)(C)O2 (stereo partly drawn) | 4.05 µM | 687 µM | – |
| CCC[C@@H](CC(=O)OC)c1c(O)c2c(c3c1OC(C)(C)C=C3)O[C@@H](C)[C@H](C)C2=O | 2.91 µM | 698 µM | – |
| CNC(=N)NCCC[C@H](N)C(=O)O [TILARGININE ACETATE] | 20.3 µM | 214 µM | – |
| CCCCC[C@H](CC(=O)OC)c1c(O)c2c(c3c1OC(C)(C)C=C3)O[C@H](C)[C@H](C)C2=O | 0.92 µM | 660 µM | Activity [3]: Dde; Ratio [4]: 0.89; Activity [5]: Active; Activity [6]: Dde; Activity [7]: Dde; Activity [8]: Dde; Ratio [9]: 0.74; Activity [10]: Dde; Activity [11]: Dde; Activity [12]: Dde; Activity [13]: Dde; Activity [14]: Active; Activity [15]: Dde |
| C[C@H]1Oc2c(c(O)c3c(c2[C@@H](CC(=O)O)c2ccccc2)OC(C)(C)C=C3)C(=O)[C@@H]1C | 12.6 µM | 524 µM | – |
| CCCC1CC(=O)Oc2c(C(=O)[C@H](C)[C@H](C)O)c(O)c3c(c21)OC(C)(C)C=C3 (stereo partly drawn) | 8.42 µM | 552 µM | – |
| C[C@@H]1Oc2c3c(c([C@@H](CC(=O)O)c4ccccc4)c(O)c2C(=O)[C@@]1(C)O)OC(C)(C)C=C3 | 8.23 µM | 588 µM | – |
| C[C@H](O)[C@H](C)C(=O)c1c(O)c2c(c3c1OC(=O)C[C@H]3c1ccccc1)OC(C)(C)C=C2 | 9.34 µM | 517 µM | – |
| CCCC[C@H](CC(=O)OC)c1c2c(c(O)c3c1O[C@@H](C)[C@H](C)C3=O)C=CC(C)(C)O2 | 4.23 µM | 574 µM | – |
| CC/C=C\C[C@H](CC(=O)O)c1c2c(c(O)c3c1O[C@@H](C)[C@H](C)C3=O)C=CC(C)(C)O2 | 18.4 µM | 550 µM | – |
| COC(=O)C[C@@H](c1ccccc1)c1c(O)c2c(c3c1OC(C)(C)C=C3)O[C@H](C)[C@H](C)C2=O | 11.3 µM | 601 µM | – |
